Data from patent US20220411362A1, “DITERPENOID COMPOUNDS THAT ACT ON PROTEIN KINASE C (PKC)” (K-Gen, Inc., priority 2019, published 2022).
Like-named read-outs stand apart in the source and are kept apart here.

Experiments:
C1b domain of human PKCδ = molecular target: T1, C1b domain of human PKCδ (Homo sapiens, UniProt Q05655); test: Competitive 3H-PDBu binding to C1b domain of PKCδ; details: 3H-PDBu competition
T1 construct: Genes encoding C1b domains of human PKCα, δ, ε, θ, and PKD1 (PKCμ) were synthesized; made in house; host or cells: E. coli BL21(DE3)
T1 sequence (Q05655 230-280 limits assumed): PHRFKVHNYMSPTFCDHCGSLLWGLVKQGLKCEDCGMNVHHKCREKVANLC
Method: (§1) Compounds described in this disclosure were tested for binding affinity to C1b domain of PKC isoforms. Compound binding affinity to C1b domain of PKC isoforms was derived from competitive binding assay using radioactive tracer ^3H-PDBu and recombinant GST-C1b or full-length of human PKC proteins based on modified procedures from Methods in Molecular Biology, vol.
(§2) Genes encoding C1b domains of human PKCα, δ, ε, θ, and PKD1 (PKCμ) were synthesized and inserted into pGEX-2TK or pGEX-4T1 vectors for expression and production of GST-C1b proteins in E. coli BL21(DE3) via IPTG induction. The target proteins were purified by glutathione sepharose 4B and followed by ion exchange chromatography if needed to achieve purity >70%. Aliquots of the purified proteins were stored at −80 degree for binding assay (storage buffer: 20 mM Tris pH 8.0, 200 mM NaCl, 10% glycerol, 1 mM DTT).
(§3) The plate was incubated at 37° C. on a shaker at 300 rpm for 10 minutes and then put on ice for 20 minutes. […] The bottom of the filter plate was sealed and 50 μL of MicroScint-20 (PerkinElmer) cocktail was added to each well. ^3H-PDBu trapped in each well was counted using PerkinElmer MicroBeta2 Reader. Data were analyzed using GraphPad Prism5 with the model “log(inhibitor) vs. response-variable slope” to fit the IC50, and then IC50 was transformed to Ki using Cheng-Prusoff equation: Ki=IC50/(1+added radio ligand/Kd). Kd is the binding affinity of each protein preparation to ^3H-PDBu, determined experimentally.

C1b domain of human PKCα = molecular target: T2, C1b domain of human PKCα (Homo sapiens, UniProt P17252); test: biochemical; format: binding; details: 3H-PDBu competition
T2 construct: Genes encoding C1b domains of human PKCα, δ, ε, θ, and PKD1 (PKCμ) were synthesized; made in house; host or cells: E. coli BL21(DE3)
Method: as §1, §2
The plate was incubated at 37° C. on a shaker at 300 rpm for 10 minutes and then put on ice for 20 minutes. […] The bottom of the filter plate was sealed and 50 μL of MicroScint-20 (PerkinElmer) cocktail was added to each well. ^3H-PDBu trapped in each well was counted using PerkinElmer MicroBeta2 Reader. […] Kd is the binding affinity of each protein preparation to ^3H-PDBu, determined experimentally.

C1b domain of human PKCθ = molecular target: T3, C1b domain of human PKCθ (Homo sapiens, UniProt Q04759); test: Competitive 3H-PDBu binding to C1b domain of PKCθ
T3 construct: Genes encoding C1b domains of human PKCα, δ, ε, θ, and PKD1 (PKCμ) were synthesized; made in house; host or cells: E. coli BL21(DE3)
T3 sequence (Q04759 231-281 limits assumed): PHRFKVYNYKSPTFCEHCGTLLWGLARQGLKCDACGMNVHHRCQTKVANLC
Method: as §1, §2, §3

C1b domain of human PKCε = molecular target: T4, C1b domain of human PKCε (Homo sapiens, UniProt Q02156); test: Competitive 3H-PDBu binding to C1b domain of PKCε
T4 construct: Genes encoding C1b domains of human PKCα, δ, ε, θ, and PKD1 (PKCμ) were synthesized; made in house; host or cells: E. coli BL21(DE3)
T4 sequence (Q02156 242-292 limits assumed): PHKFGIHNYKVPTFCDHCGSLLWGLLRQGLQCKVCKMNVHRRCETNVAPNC
Method: as §1, §2, §3

[1] = molecular target: T5, C1b domain of human PKD1 (PKCμ) (Homo sapiens, UniProt Q15139); test: biochemical; format: binding
T5 construct: Genes encoding C1b domains of human PKCα, δ, ε, θ, and PKD1 (PKCμ) were synthesized; made in house; host or cells: E. coli BL21(DE3)
T5 sequence (Q15139 270-320 limits assumed): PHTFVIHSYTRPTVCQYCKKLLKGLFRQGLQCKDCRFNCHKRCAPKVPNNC
Method: as §1, §2, §3

[2] = tested on: A549 non-small cell lung cancer cell line; test: Proliferation of A549 (CellTiter Glo); format: cell-based; details: Homo sapiens, read-out: IC50 μM (A549 Cell Line)
Method: (§4) The diterpenoid compounds were tested in A549, a non-small cell lung cancer cell line harboring a K-Ras activating mutation. Briefly, A549 cells at a density of 1,000 cells/well were seeded in 96-well plates and incubated at 37° C. for 24 hours. A series of different concentrations of compound stocks (500×) were prepared by 3-fold serial dilution in DMSO. These compounds were further diluted in culture media and then added to cells so that the final DMSO concentration was not exceeding 0.25%. After 96 hours of incubation, 50 μL of CellTiter Glo reagent (Promega) was added to each well and luminescence was measured after 10 minutes using EnVision (PerkinElmer). Luminescence from cells treated with DMSO alone was set as Max and % of inhibition was calculated as follows: Inhibition %=(Max−Sample value)/Max×100. Data was analyzed using XL-fit software (ID Business Solutions Ltd.) and IC50, relative IC50, and % of top inhibition was calculated. Some of the compounds in this disclosure were very potent in blocking proliferation of A549 lung cancer cells at low nM range. In addition, potency of inhibiting A549 proliferation correlated well with its binding affinity to PKCs for this series of compounds. In other words, higher affinity binders had stronger inhibitory effects on A549 proliferation. This further support the notion that activation, rather than inhibition, of certain PKC isoforms is required to block proliferation of cancer cells, some of which may harbor K-Ras mutations. This is in sharp contrast to previous literature and common belief that inhibition of PKC is necessary to block cancer cell growth (Kang, 2014, New Journal of Science, 2014:1-36). Data presented here is in agreement with recent findings that many loss-of-function but not gain-of-function mutations of PKC isoforms have been identified in many human cancers (Antal et al., 2015, Cell, 160:489-502).

[3] = tested on: HL-60 (Leukemia) cell line; test: Proliferation of HL-60; format: cell-based
Method: as §4
(§5) The compounds in this disclosure were tested for their potency in blocking proliferation of a few other cancer cells lines, including K-Ras mutant pancreatic cell lines Panc2.13 and KP-4, leukemia cell line HL-60, and lymphoma cell lines Namalwa and Mino. Similar procedures as in Example 67 were followed. Initial cell numbers seeded in 96-well plates were different for different cell lines: 3000 cells/well for Panc2.13; 800-1000 cells/well for KP-4; 5000 cells/well for HL-60; 5000-10000 cells/well for Namalwa and Mino. A ratio ratio of (IC50 of K01)/(IC50 of compound) (data in parenthesis in Table 5) was used to normalize the compound potency from different assay batches to a common comparator […].

[4] = tested on: Namalwa (Lymphoma) cell line; test: Proliferation of Namalwa; format: cell-based; details: for ratio of (IC50 of K01)/(IC50 of compound), Namalwa: value in parenthesis; for IC50: read-out: IC50 in μM Namalwa (Lymphoma)
Method: as §4, §5

[5] = tested on: Mino (Lymphoma) cell line; test: Proliferation of Mino; format: cell-based
Method: as §4, §5

[6] = tested on: Panc2.13 (Pancreatic) cell line; test: Proliferation of Panc2.13; format: cell-based; details: for ratio of (IC50 of K01)/(IC50 of compound), Panc2.13: value in parenthesis; for IC50: read-out: IC50 in μM Panc2.13 (Pancreatic)
Method: as §4, §5

[7] = tested on: KP-4 (Pancreatic) cell line; test: Proliferation of KP-4; format: cell-based; details: Homo sapiens, KP-4, read-out: IC50 in μM KP-4 (Pancreatic)
Method: as §4, §5

[8] = Homo sapiens, HL-60, read-out: IC50 in μM HL-60 (Leukemia)
[9] = Homo sapiens, MINO, read-out: IC50 in μM Mino (Lymphoma)

Structure (SMILES) | Ki (C1b domain of human PKCδ; Ki PKCδ) [nM] | Ki (C1b domain of human PKCα; Ki PKCα) [nM] | Ki (C1b domain of human PKCθ) [nM] | Ki (C1b domain of human PKCε) [nM] | Ki [1] [nM] | IC50 ([2]; A549, 96 h) [µM] | ratio of (IC50 of K01)/(IC50 of compound), HL-60 ([3]; HL-60; value in parenthesis) | IC50 [3, 8] [µM] | ratio of (IC50 of K01)/(IC50 of compound), Namalwa [4] | IC50 [4] [µM] | IC50 [5, 9] [µM] | ratio of (IC50 of K01)/(IC50 of compound), Mino ([5]; Mino; value in parenthesis) | ratio of (IC50 of K01)/(IC50 of compound), Panc2.13 [6] | IC50 [6] [µM] | IC50 [7] [µM] | other results
CC1=C[C@H]2[C@@]3(O)[C@H](C)C[C@]4(OC(=O)[C@@H](N)C(C)(C)c5ccc(C(F)(F)F)cc5)[C@H]([C@@H]3C=C(CO)C[C@]2(O)C1=O)C4(C)C [Compound K101-C134902] | < 5 | 30 to 60 | 5 to 10 | 1 to 30 | < 5 | 0.03 to 0.06 | 12 | 0.01 to 0.03 | 3.5 | 0.01 to 0.03 | 0.001 to 0.01 | 15.7 | – | – | – | –
CC1=C[C@H]2[C@@]3(O)[C@H](C)C[C@]4(OC(=O)[C@@H](N)Cc5ccc(C(F)(F)F)cc5)[C@H]([C@@H]3C=C(CO)C[C@]2(O)C1=O)C4(C)C [Compound K101-C1342] | 5 to 10 | 100 to 200 | – | – | < 5 | 0.06 to 0.1 | 6.43 | 0.03 to 0.06 | 1.68 | 0.03 to 0.06 | 0.01 to 0.03 | 6.2 | 6.79 | 0.1 to 0.2 | 0.06 to 0.1 | –
CC1=C[C@H]2[C@@]3(O)[C@H](C)C[C@]4(OC(=O)[C@@H](N)CCc5ccccc5)[C@H]([C@@H]3C=C(CO)C[C@]2(O)C1=O)C4(C)C [Compound K101-C1318] | 5 to 10 | 100 to 200 | 1 to 30 | 30 to 60 | < 5 | 0.1 to 0.2 | 3.21 | 0.1 to 0.2 | 0.93 | 0.06 to 0.1 | 0.01 to 0.03 | 3.18 | 4.28 | 0.2 to 0.6 | 0.1 to 0.2 | –
CC1=C[C@H]2[C@@]3(O)[C@H](C)C[C@]4(OC(=O)Cc5ccccc5)[C@H]([C@@H]3C=C(CO)C[C@]2(O)C1=O)C4(C)C [Compound K101-C1304] | – | – | – | – | – | – | 18 | – | 3.29 | 0.01 to 0.03 | – | 15.6 | – | – | – | Ki (C1b domain of human PKCδ; read-out: Ki PKCδ): 5 to 10 nM; Ki (C1b domain of human PKCα; read-out: Ki PKCα): 100 to 200 nM; Ki (C1b domain of human PKCθ; C1b domain of human PKCθ, 3H-PDBu competition, read-out: Ki PKCθ): 5 to 10 nM; Ki (C1b domain of human PKCε; C1b domain of human PKCε, 3H-PDBu competition, read-out: Ki PKCε): 1 to 30 nM; Ki ([1]; C1b domain of human PKD1 (PKCμ), 3H-PDBu competition, read-out: Ki PKD1/PKCμ): < 5 nM; IC50 ([2]; A549, 96 hours incubation, CellTiter Glo): 0.03 to 0.06 µM; IC50 ([3]; Homo sapiens, HL-60; read-out: IC50 in μM HL-60 (Leukemia)): 0.01 to 0.03 µM; IC50 ([5]; Homo sapiens, MINO; read-out: IC50 in μM Mino (Lymphoma)): 0.001 to 0.01 µM
CC1=C[C@H]2[C@@]3(O)[C@H](C)C[C@]4(OC(=O)CCC5CCCC5)[C@H]([C@@H]3C=C(CO)C[C@]2(O)C1=O)C4(C)C [Compound K101-C1301] | 5 to 10 | 100 to 200 | 1 to 30 | 5 to 10 | < 5 | 0.03 to 0.06 | 9.23 | 0.03 to 0.06 | 1.73 | 0.03 to 0.06 | 0.001 to 0.01 | 11 | – | – | – | –
